Among the data in article PMC6437697 (Journal of Medicinal Chemistry, 2019) are remaining binding and inhibition values, retold here.

The structures appear in SMILES notation.

Holding throughout (test): KINOMEscan
Format in all cases: binding

One experiment has as its target T1, RIPK1 (Homo sapiens, UniProt Q13546).
T1 construct: purchased Eurofins DiscoverX KINOMEscan
T1 sequence (Q13546 1-671): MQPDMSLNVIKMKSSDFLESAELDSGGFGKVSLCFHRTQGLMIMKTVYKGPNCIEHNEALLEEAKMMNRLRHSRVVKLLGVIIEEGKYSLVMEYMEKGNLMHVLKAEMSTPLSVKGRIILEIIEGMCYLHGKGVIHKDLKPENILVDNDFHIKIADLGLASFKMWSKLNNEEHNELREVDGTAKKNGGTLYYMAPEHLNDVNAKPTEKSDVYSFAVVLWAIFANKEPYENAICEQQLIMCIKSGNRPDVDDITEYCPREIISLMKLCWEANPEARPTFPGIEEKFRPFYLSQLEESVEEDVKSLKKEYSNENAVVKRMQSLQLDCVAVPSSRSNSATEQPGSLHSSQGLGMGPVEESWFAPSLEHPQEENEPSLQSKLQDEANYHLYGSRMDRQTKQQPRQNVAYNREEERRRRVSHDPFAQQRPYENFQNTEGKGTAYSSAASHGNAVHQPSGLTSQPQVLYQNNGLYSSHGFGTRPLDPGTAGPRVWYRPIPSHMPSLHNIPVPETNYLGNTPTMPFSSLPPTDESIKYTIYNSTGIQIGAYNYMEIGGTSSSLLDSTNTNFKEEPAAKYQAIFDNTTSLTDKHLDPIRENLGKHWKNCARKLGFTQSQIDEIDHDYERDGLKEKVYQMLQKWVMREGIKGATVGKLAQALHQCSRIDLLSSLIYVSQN
The conditions noted are these: read-out: % control activity remaining.

Another experiment has as its target T2, ERK5 (Homo sapiens, UniProt Q13164).
T2 construct: purchased Eurofins DiscoverX KINOMEscan
The conditions noted are these: read-out: % control activity remaining.

The target in a further experiment is T3, MERTK (Homo sapiens, UniProt Q12866).
T3 construct: purchased Eurofins DiscoverX KINOMEscan
T3 sequence (Q12866 21-999): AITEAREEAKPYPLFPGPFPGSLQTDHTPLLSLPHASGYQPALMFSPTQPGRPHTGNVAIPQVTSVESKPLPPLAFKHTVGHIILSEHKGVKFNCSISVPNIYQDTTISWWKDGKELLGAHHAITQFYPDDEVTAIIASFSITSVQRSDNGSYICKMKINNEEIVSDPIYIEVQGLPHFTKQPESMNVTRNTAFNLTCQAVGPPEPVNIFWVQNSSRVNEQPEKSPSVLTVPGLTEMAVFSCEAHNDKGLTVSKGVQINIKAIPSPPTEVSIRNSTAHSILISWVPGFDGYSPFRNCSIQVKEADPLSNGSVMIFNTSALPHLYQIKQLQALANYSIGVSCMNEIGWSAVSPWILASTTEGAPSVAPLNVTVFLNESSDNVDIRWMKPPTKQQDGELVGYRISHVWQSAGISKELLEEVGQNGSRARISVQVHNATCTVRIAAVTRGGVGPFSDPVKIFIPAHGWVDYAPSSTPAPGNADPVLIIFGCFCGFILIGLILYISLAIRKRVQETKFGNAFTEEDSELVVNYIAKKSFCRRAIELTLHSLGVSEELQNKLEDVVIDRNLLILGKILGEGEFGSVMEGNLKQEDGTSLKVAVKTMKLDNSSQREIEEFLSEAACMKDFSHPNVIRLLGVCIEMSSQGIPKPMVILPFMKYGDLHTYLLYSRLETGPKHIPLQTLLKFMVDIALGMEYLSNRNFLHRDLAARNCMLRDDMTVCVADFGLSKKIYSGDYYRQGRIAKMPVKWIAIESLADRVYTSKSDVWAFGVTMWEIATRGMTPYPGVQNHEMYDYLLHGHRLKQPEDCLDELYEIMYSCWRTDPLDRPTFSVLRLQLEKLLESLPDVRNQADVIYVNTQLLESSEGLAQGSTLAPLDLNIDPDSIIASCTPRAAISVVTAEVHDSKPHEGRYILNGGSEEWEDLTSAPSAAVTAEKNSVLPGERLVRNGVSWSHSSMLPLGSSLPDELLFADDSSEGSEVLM
As to conditions: read-out: % control activity remaining.

The target in a further experiment is T4, WNK1 (Homo sapiens, UniProt Q9H4A3).
T4 construct: purchased Eurofins DiscoverX KINOMEscan
As to conditions: read-out: % control activity remaining.

In the next experiment the target is T5, PIK3CA(I800L) (Homo sapiens, UniProt P42336, I800L).
T5 construct: purchased Eurofins DiscoverX KINOMEscan
As to conditions: read-out: % control activity remaining.

For a further experiment, the target named is T6, PCTK2 (Homo sapiens, UniProt Q00537).
T6 construct: purchased Eurofins DiscoverX KINOMEscan
The conditions noted are these: for remaining binding at 1 µM: read-out: % control activity remaining.

Experiment [1] concerns the target T7, RPS6KA4(Kin.Dom.2-C-terminal) (Homo sapiens, UniProt O75676).
T7 construct: RPS6KA4(Kin.Dom.2-C-terminal); purchased Eurofins DiscoverX KINOMEscan
As to conditions: read-out: % control activity remaining.

The next experiment has as its target T8, RET(V804M) (Homo sapiens, UniProt P07949, V804M).
T8 construct: purchased Eurofins DiscoverX KINOMEscan
As to conditions: read-out: % control activity remaining.

The target of a further experiment is T9, JNK1 (Homo sapiens, UniProt P45983).
T9 construct: purchased Eurofins DiscoverX KINOMEscan
As to conditions: read-out: % control activity remaining.

For the next experiment, the target named is T10, SgK110 (Homo sapiens, UniProt P0C264).
T10 construct: purchased Eurofins DiscoverX KINOMEscan
T10 sequence (P0C264 1-359): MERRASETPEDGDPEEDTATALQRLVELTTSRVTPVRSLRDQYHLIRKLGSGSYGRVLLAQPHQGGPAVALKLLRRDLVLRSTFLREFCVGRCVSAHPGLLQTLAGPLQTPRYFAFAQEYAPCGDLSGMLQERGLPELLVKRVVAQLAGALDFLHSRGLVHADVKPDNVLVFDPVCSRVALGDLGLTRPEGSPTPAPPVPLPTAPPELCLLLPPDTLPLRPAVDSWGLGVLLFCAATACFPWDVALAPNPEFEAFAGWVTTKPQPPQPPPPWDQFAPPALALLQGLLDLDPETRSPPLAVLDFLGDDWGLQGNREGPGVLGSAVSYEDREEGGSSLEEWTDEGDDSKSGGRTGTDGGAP
As to conditions: read-out: % control activity remaining.

A further experiment concerns the target T11, MST3 (Homo sapiens, UniProt Q9Y6E0).
T11 construct: purchased Eurofins DiscoverX KINOMEscan
As to conditions: read-out: % control activity remaining.

Another experiment has as its target T12, AAK1 (Homo sapiens, UniProt Q2M2I8).
T12 construct: purchased Eurofins DiscoverX KINOMEscan
The conditions noted are these: read-out: % control activity remaining.

T11 sequence (Q9Y6E0 whole entry): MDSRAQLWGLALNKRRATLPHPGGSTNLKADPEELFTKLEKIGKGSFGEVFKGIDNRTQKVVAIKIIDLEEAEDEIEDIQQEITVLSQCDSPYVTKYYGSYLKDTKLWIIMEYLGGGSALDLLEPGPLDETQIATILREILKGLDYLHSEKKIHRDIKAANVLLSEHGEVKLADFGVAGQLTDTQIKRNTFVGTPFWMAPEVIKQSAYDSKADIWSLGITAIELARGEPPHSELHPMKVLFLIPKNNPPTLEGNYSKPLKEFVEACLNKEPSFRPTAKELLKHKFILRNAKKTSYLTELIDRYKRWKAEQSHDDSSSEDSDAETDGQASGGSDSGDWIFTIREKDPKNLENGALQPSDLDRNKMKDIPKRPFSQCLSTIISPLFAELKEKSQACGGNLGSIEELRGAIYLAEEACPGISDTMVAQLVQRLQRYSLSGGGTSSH
T2 sequence (Q13164 whole entry): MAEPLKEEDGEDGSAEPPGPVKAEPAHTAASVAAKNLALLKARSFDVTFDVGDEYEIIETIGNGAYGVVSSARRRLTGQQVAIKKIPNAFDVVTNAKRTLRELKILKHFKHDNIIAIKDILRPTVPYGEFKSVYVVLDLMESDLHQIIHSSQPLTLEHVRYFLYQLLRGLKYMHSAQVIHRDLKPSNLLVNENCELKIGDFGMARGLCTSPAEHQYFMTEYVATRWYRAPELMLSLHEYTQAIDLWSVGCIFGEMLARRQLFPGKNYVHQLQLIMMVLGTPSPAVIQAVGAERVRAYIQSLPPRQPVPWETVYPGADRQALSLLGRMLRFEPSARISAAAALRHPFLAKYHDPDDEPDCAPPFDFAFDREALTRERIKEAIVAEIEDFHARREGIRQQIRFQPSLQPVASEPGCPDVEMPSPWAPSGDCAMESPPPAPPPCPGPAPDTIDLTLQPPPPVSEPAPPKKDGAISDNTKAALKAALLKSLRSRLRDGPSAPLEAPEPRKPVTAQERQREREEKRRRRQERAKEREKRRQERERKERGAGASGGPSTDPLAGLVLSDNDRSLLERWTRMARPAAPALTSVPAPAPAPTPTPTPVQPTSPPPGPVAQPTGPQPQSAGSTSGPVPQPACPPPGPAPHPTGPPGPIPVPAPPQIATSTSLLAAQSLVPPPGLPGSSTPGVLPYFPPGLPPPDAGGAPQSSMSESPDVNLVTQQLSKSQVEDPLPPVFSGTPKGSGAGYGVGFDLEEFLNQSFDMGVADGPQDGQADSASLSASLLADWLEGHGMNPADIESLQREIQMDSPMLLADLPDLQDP
T7 sequence (O75676 411-674 limits assumed): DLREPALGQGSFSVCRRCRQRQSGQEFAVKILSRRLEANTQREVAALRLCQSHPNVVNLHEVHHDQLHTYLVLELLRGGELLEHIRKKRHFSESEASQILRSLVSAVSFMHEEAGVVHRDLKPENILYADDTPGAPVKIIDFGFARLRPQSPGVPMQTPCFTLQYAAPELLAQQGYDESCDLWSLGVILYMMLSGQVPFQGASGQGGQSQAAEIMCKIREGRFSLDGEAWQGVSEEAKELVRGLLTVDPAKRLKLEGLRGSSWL
T9 sequence (P45983 whole entry): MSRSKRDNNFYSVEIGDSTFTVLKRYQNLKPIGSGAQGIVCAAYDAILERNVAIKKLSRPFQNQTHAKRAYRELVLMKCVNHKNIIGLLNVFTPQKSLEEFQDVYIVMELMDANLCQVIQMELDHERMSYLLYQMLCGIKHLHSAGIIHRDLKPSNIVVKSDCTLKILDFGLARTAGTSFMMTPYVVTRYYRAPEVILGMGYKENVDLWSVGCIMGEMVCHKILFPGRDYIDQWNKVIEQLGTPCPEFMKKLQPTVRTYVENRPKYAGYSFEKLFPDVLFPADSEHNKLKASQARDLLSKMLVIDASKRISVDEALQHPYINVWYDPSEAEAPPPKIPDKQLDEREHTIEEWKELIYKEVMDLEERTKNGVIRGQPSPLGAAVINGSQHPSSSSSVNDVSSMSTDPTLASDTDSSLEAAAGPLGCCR
T4 sequence (Q9H4A3 whole entry): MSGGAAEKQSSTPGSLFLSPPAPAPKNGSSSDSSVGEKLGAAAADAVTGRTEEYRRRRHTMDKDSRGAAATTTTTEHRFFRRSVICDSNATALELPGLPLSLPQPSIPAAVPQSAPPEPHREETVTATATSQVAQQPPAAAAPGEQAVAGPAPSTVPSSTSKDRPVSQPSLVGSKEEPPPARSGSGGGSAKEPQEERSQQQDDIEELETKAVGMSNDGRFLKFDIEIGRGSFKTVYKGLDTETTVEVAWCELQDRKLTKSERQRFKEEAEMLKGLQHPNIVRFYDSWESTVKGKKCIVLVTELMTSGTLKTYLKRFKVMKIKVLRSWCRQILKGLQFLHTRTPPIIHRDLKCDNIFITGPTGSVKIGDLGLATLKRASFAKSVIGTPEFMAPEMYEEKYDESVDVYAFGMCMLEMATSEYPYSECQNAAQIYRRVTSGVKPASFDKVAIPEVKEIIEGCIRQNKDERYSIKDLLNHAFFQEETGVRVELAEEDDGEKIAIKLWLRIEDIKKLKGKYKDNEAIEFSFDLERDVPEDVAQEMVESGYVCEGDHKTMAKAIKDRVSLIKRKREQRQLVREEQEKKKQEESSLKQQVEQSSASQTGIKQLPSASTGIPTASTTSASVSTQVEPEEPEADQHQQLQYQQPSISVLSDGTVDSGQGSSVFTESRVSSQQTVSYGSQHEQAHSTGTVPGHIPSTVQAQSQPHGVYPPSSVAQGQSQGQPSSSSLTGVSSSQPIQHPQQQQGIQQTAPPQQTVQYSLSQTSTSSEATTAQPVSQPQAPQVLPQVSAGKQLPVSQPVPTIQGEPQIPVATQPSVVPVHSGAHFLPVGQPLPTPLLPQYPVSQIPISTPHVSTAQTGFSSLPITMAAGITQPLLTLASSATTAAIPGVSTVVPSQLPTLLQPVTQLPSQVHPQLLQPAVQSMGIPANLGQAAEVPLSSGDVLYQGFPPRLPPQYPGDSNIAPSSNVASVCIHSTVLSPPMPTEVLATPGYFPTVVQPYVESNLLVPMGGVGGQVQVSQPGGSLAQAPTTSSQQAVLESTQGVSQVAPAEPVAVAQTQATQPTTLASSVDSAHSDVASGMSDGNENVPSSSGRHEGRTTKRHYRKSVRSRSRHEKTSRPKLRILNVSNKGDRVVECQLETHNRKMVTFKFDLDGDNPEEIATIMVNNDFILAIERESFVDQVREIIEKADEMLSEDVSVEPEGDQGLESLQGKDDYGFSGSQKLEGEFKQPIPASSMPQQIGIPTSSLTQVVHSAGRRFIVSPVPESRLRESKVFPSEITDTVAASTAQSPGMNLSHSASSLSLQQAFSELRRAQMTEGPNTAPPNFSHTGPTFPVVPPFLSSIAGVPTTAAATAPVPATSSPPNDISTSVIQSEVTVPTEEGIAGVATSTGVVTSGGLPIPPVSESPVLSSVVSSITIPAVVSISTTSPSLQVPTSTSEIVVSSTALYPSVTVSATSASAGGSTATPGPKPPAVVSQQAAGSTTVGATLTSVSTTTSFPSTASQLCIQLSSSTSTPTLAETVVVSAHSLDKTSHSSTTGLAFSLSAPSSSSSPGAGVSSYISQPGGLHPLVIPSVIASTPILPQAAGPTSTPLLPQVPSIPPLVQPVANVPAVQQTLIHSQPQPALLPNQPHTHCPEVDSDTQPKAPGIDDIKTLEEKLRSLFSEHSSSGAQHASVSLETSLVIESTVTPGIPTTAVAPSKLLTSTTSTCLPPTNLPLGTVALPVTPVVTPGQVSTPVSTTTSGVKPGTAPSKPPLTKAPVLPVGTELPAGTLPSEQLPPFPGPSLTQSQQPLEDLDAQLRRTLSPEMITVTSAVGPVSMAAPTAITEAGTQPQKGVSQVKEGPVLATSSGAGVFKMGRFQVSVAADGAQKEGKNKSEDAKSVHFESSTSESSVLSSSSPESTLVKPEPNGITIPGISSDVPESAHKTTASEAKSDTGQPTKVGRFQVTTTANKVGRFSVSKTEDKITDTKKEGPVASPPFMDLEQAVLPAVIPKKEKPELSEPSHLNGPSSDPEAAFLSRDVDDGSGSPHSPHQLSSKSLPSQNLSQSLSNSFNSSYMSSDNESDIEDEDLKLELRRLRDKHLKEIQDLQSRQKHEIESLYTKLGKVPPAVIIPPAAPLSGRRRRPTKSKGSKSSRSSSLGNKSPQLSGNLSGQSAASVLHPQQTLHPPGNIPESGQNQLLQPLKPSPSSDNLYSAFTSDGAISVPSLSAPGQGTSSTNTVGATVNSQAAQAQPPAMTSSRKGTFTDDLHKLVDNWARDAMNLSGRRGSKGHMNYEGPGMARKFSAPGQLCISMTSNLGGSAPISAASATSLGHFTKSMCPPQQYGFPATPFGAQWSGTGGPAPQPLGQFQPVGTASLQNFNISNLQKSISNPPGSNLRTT
T6 sequence (Q00537 whole entry): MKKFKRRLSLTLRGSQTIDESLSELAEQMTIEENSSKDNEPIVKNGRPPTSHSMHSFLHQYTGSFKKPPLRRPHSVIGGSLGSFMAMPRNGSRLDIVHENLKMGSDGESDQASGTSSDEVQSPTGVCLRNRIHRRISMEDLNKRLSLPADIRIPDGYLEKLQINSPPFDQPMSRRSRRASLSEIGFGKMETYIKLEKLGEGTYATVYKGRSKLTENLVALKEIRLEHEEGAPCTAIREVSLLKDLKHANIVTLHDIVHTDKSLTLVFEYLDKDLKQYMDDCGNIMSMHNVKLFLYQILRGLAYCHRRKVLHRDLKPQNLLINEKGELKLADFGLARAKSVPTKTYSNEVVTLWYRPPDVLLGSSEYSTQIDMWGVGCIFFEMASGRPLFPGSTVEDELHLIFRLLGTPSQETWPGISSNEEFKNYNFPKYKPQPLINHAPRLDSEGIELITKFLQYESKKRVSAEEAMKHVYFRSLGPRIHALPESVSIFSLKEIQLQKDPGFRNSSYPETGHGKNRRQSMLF

For `Clc1cc(NCC2CC2)c2ncc(-c3ccc4[nH]ncc4c3)n2n1` [compound 2, 6-Chloro-N-(cyclopropylmethyl)-3-(1H-indazol-5-yl)imidazo[1,2-b]pyridazin-8-amine], the remaining binding at 1 µM was determined as 91% at RIPK1; 100% at ERK5; 100% at MERTK; 89% at WNK1; 83% at PIK3CA(I800L); 98% at PCTK2. In addition, the remaining binding at 1 µM was 87% in experiment [1]; 97% at RET(V804M); 91% on JNK1; 100% on SgK110; 100% on MST3; 39% at AAK1.

Take `O=C(CN1CCOCC1)N[C@H]1CC[C@H](Nc2cc(Cl)nn3c(-c4ccc5[nH]ncc5c4)cnc23)CC1` [compound 26]: the remaining binding at 1 µM amounted to 74% at RIPK1; 98% on ERK5; 70% at MERTK; 100% on WNK1; 88% at PIK3CA(I800L); 66% on PCTK2. In addition, the remaining binding at 1 µM in experiment [1] was found to be 81%; on RET(V804M) it was 82%; at JNK1, 83%; at SgK110, 100%; on MST3, 91%; at AAK1, 28%.

`CN1CCC(CNc2cc(Cl)nn3c(-c4cc5nc(Nc6ccccc6)[nH]c5cc4F)cnc23)CC1` [compound 31, 6-Chloro-3-(6-fluoro-2-(phenylamino)-1H-benzo[d]imidazol-5-yl)-N-((1-methylpiperidin-4-yl)methyl)imidazo[1,2-b]pyridazin-8-amine]: the remaining binding at 1 µM on RIPK1 came out at 94%; at ERK5 it was 87%; at MERTK, 82%; on WNK1, 76%; at PIK3CA(I800L) it was 58%; at PCTK2, 2.7%. Further, the remaining binding at 1 µM in experiment [1] was 86%; at RET(V804M) it was 100%; on JNK1 it was 67%; on SgK110 it was 100%; on MST3, 92%; at AAK1 it was 100%. For the same compound, the inhibition at 1 µM on PCTK2 (read-out: Probe binding inhibited, 1 μM) was found to be 97%.
